Measurements published in patent publication US8952024B2, “Herbicidal pyrimidone derivatives” (E I du Pont de Nemours and Company, priority 2009, dated 2015).

Columns and labels:
Format in all cases: in vivo
[1] = tested on: barnyardgrass (Echinochloa crus-galli); assay: Test A pre-/postemergence plant response
How it was run: (§1)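 Visually rated 0–100 injury (100 = complete control) versus untreated plants, ~10 days in greenhouse. Application pre- (soil spray, loam/sand) and postemergence (2–10 cm, 1–2 leaf stage), same timepoint.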

corn (Zea mays) = assay: Test A pre-/postemergence plant response
How it was run: as §1

[2] = tested on: giant foxtail (Setaria faberii); assay: Test A pre-/postemergence plant response
How it was run: as §1

[3] = tested on: large crabgrass (Digitaria sanguinalis); assay: Test A pre-/postemergence plant response
How it was run: as §1

[4] = tested on: morningglory (Ipomoea spp.); assay: Test A pre-/postemergence plant response
How it was run: as §1

[5] = tested on: pigweed (Amaranthus retroflexus); assay: Test A pre-/postemergence plant response
How it was run: as §1

[6] = tested on: velvetleaf (Abutilon theophrasti); assay: Test A pre-/postemergence plant response
How it was run: as §1

[7] = tested on: wheat (Triticum aestivum); assay: Test A pre-/postemergence plant response
How it was run: as §1

[8] = tested on: canarygrass (Phalaris minor); assay: Test B postemergence plant response
How it was run: (§2)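 Plants at the 1- to 4-leaf stage (2 to 18 cm tall), grown in pots of peat moss/vermiculite medium with wetting agent and starter nutrients, received postemergence applications of test chemicals. After 13 to 15 days in a greenhouse, injury was rated visually against untreated controls on a 0 (no effect) to 100 (complete control) scale.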

[9] = tested on: chickweed (Stellaria media); assay: Test B postemergence plant response
How it was run: as §2

[10] = tested on: windgrass (Apera spica-venti); assay: Test B postemergence plant response
How it was run: as §2

[11] = tested on: ducksalad (Heteranthera limosa); assay: Test B flooded paddy test; conditions: for Plant response rating, Flood, Ducksalad: 250 g ai/ha, flooded paddy test, visual rating on 0 to 100 scale (0 no effect, 100 complete control) after 13 to 15 days; for Plant response rating, Ducksalad: Flood (flooded paddy test), 13 to 15 days
How it was run: (§3)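 Ratings are visual, 0–100 (100 = complete control), taken versus untreated controls 13 to 15 days after treatment in the greenhouse. Compound went straight into paddy water held 3 cm above soil, applied to 2-leaf-stage plants of four species.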

rice (Oryza sativa) = assay: Test B flooded paddy test; conditions: for Plant response rating, Flood, Rice: 250 g ai/ha, flooded paddy test, visual rating on 0 to 100 scale (0 no effect, 100 complete control) after 13 to 15 days; for Plant response rating, Rice: Flood (flooded paddy test), 13 to 15 days
How it was run: as §3

[12] = Postemergence, 125 g ai/ha, visual injury, 0 to 100 scale (0 no effect, 100 complete control), approx. ten days
[13] = Postemergence, 500 g ai/ha, 0 to 100 scale, 0 = no effect, 100 = complete control, approx. ten days
[14] = Preemergence, 125 g ai/ha, 0 to 100 scale, 0 = no effect, 100 = complete control
[15] = Preemergence, 500 g ai/ha, visual injury, 0 to 100 scale (0 no effect, 100 complete control), approx. ten days
[16] = 31 g ai/ha, postemergence, scale 0 to 100, 0 is no effect, 100 is complete control
[17] = Postemergence, 62 g ai/ha, scale 0 (no effect) to 100 (complete control), 13 to 15 days
[18] = Postemergence, 125 g ai/ha, visual rating after 13 to 15 days, scale 0 (no effect) to 100 (complete control)
[19] = Postemergence, 250 g ai/ha, scale 0 to 100 (0 no effect, 100 complete control)
[20] = 31 g ai/ha, scale of 0 to 100 where 0 is no effect and 100 is complete control
[21] = 62 g ai/ha, scale of 0 to 100 where 0 is no effect and 100 is complete control
[22] = 125 g ai/ha, scale 0 to 100, 0 is no effect, 100 is complete control
[23] = Postemergence, 125 g ai/ha, 0 to 100 scale where 0 is no effect and 100 is complete control
[24] = Postemergence, 500 g ai/ha, visual injury, 0 to 100 scale (0 no effect, 100 complete control), approx. ten days
[25] = Preemergence, 500 g ai/ha, 0 to 100 scale, 0 = no effect, 100 = complete control
[26] = Postemergence, 31 g ai/ha, 0 to 100 scale (0 no effect, 100 complete control)
[27] = Postemergence, 62 g ai/ha, scale 0 to 100 (0 no effect, 100 complete control)
[28] = Postemergence, 125 g ai/ha, scale 0 to 100 (0 no effect, 100 complete control)
[29] = Postemergence, 250 g ai/ha, scale 0 to 100 (0 no effect, 100 complete control), 13 to 15 days
[30] = Flood, 31 g ai/ha, scale 0 to 100 (0 no effect, 100 complete control)

In the case of `Cn1c(-c2ccccc2)ncc(C(=O)C2=C(O)CCCC2=O)c1=O` [Compound 55], the “Barnyardgrass plant response rating” value [1, 12] is reported as 50, the “Plant response rating, Barnyardgrass” value [1, 13] is reported as 70 and the “Plant response rating, Barnyardgrass” value [1, 14] is reported as 0. The “Plant response rating, Barnyardgrass” value [1, 15] was 10, the “Corn plant response rating” value (corn (Zea mays); [12]) was 0 and the “Plant response rating, Corn” value (corn (Zea mays); [13]) was 10. For the same compound, the “Plant response rating, Corn” value (corn (Zea mays); [14]) was 0, the “Plant response rating, Corn” value (corn (Zea mays); [15]) was 0 and the “Foxtail, Giant plant response rating” value [2, 12] was 20. For the same compound, the “Plant response rating, Foxtail, Giant” value [2, 13] was 60, the “Plant response rating, Foxtail, Giant” value [2, 14] was 0 and the “Plant response rating, Foxtail, Giant” value [2, 15] was 0. For the same compound, the “Crabgrass, Large plant response rating” value [3, 12] was 70, the “Plant response rating, Crabgrass, Large” value [3, 13] was 90 and the “Plant response rating, Crabgrass, Large” value [3, 14] was 0. The “Plant response rating, Crabgrass, Large” value [3, 15] was 50, the “Morningglory plant response rating” value [4, 12] was 90 and the “Plant response rating, Morningglory” value [4, 13] was 90. The “Plant response rating, Morningglory” value [4, 14] was 30, the “Plant response rating, Morningglory” value [4, 15] was 60 and the “Pigweed plant response rating” value [5, 12] was 90. For the same compound, the “Plant response rating, Pigweed” value [5, 13] was 100, the “Plant response rating, Pigweed” value [5, 14] was 50 and the “Plant response rating, Pigweed” value [5, 15] was 100. For the same compound, the “Velvetleaf plant response rating” value [6, 12] was 100, the “Plant response rating, Velvetleaf” value [6, 13] was 100 and the “Plant response rating, Velvetleaf” value [6, 14] was 60. For the same compound, the “Plant response rating, Velvetleaf” value [6, 15] was 60, the “Wheat plant response rating” value [7, 12] was 0 and the “Plant response rating, Wheat” value [7, 13] was 0. The “Plant response rating, Wheat” value [7, 14] was 0, the “Plant response rating, Wheat” value [7, 15] was 0 and the “Plant response rating, Canarygrass” value [8, 16] was 0. The “Plant response rating, Canarygrass” value [8, 17] was 0, the “Plant response rating, Canarygrass” value [8, 18] was 0 and the “Plant response rating, Canarygrass” value [8, 19] was 0. The “Plant response rating, Chickweed” value [9, 16] was 65, the “Plant response rating, Chickweed” value [9, 17] was 75 and the “Plant response rating, Chickweed” value [9, 18] was 80. The “Plant response rating, Chickweed” value [9, 19] was 90, the “Plant response rating, Windgrass” value [10, 16] was 0 and the “Plant response rating, Windgrass” value [10, 17] was 0. The “Plant response rating, Windgrass” value [10, 18] was 0, the “Plant response rating, Windgrass” value [10, 19] was 5 and the “Plant response rating, Flood, Ducksalad” value [11] was 50. For the same compound, the “Plant response rating, Ducksalad” value [11, 20] was 0, the “Plant response rating, Ducksalad” value [11, 21] was 0 and the “Plant response rating, Ducksalad” value [11, 22] was 0. For the same compound, the “Plant response rating, Flood, Rice” value (rice (Oryza sativa)) was 25, the “Plant response rating, Rice” value (rice (Oryza sativa); [20]) was 0 and the “Plant response rating, Rice” value (rice (Oryza sativa); [21]) was 10. The “Plant response rating, Rice” value (rice (Oryza sativa); [22]) was 15.

In the case of `COCCn1c(-c2ccsc2)ncc(C(=O)C2=C(O)C3CCC(C3)C2=O)c1=O` (stereo not shown) [Compound 228], the “Plant response rating, Barnyardgrass” value [1, 23] is reported as 90, the “Barnyardgrass plant response rating” value [1, 24] is reported as 90 and the “Plant response rating, Barnyardgrass” value [1, 14] is reported as 40. The “Plant response rating, Barnyardgrass” value [1, 25] was 100, the “Plant response rating, Corn” value (corn (Zea mays); [23]) was 50 and the “Corn plant response rating” value (corn (Zea mays); [24]) was 90. The “Plant response rating, Corn” value (corn (Zea mays); [14]) was 0, the “Plant response rating, Corn” value (corn (Zea mays); [25]) was 50 and the “Plant response rating, Foxtail, Giant” value [2, 23] was 90. The “Foxtail, Giant plant response rating” value [2, 24] was 90, the “Plant response rating, Foxtail, Giant” value [2, 14] was 50 and the “Plant response rating, Foxtail, Giant” value [2, 25] was 90. For the same compound, the “Plant response rating, Crabgrass, Large” value [3, 23] was 90, the “Crabgrass, Large plant response rating” value [3, 24] was 100 and the “Plant response rating, Crabgrass, Large” value [3, 14] was 100. For the same compound, the “Plant response rating, Crabgrass, Large” value [3, 25] was 100, the “Plant response rating, Morningglory” value [4, 23] was 100 and the “Morningglory plant response rating” value [4, 24] was 100. For the same compound, the “Plant response rating, Morningglory” value [4, 14] was 70, the “Plant response rating, Morningglory” value [4, 25] was 80 and the “Plant response rating, Pigweed” value [5, 23] was 100. The “Pigweed plant response rating” value [5, 24] was 100, the “Plant response rating, Pigweed” value [5, 14] was 100 and the “Plant response rating, Pigweed” value [5, 25] was 100. For the same compound, the “Plant response rating, Velvetleaf” value [6, 23] was 100, the “Velvetleaf plant response rating” value [6, 24] was 100 and the “Plant response rating, Velvetleaf” value [6, 14] was 100. The “Plant response rating, Velvetleaf” value [6, 25] was 100, the “Plant response rating, Wheat” value [7, 23] was 0 and the “Wheat plant response rating” value [7, 24] was 20. The “Plant response rating, Wheat” value [7, 14] was 0, the “Plant response rating, Wheat” value [7, 25] was 0 and the “Plant response rating, Canarygrass” value [8, 26] was 0. For the same compound, the “Plant response rating, Canarygrass” value [8, 27] was 0, the “Plant response rating, Canarygrass” value [8, 28] was 5 and the “Plant response rating, Canarygrass” value [8, 29] was 10. The “Plant response rating, Chickweed” value [9, 26] was 98, the “Plant response rating, Chickweed” value [9, 27] was 100 and the “Plant response rating, Chickweed” value [9, 28] was 100. For the same compound, the “Plant response rating, Chickweed” value [9, 29] was 100, the “Plant response rating, Windgrass” value [10, 26] was 5 and the “Plant response rating, Windgrass” value [10, 27] was 50. The “Plant response rating, Windgrass” value [10, 29] was 90, the “Plant response rating, Flood, Ducksalad” value [11] was 80 and the “Plant response rating, Ducksalad” value [11, 21] was 50. The “Plant response rating, Ducksalad” value [11, 22] was 75, the “Ducksalad plant response rating” value [11, 30] was 40 and the “Plant response rating, Flood, Rice” value (rice (Oryza sativa)) was 60. The “Plant response rating, Rice” value (rice (Oryza sativa); [21]) was 20, the “Plant response rating, Rice” value (rice (Oryza sativa); [22]) was 35 and the “Rice plant response rating” value (rice (Oryza sativa); [30]) was 0.
